These results are taken from EPA's ToxRefDB 2.

The structures appear in SMILES notation. Some results are limits rather than exact numbers.

Data set [1] deals with rat. Conditions: Developmental neurotoxicity study; sprague dawley; Oral; Gavage/Intubation; dose end: 125 PND; group: cannot be grouped; systemic / in life observation / body weight / offspring (pup) weight + systemic / in life observation / body weight / offspring (pup) ….
The subject of data set [2] is rat. Conditions: Multigenerational reproductive toxicity study, wistar, Oral, Feed, dose end: 2 generation.
The test system of data set [3] is rat. Conditions: Multigenerational reproductive toxicity study, wistar, Oral, Feed, dose end: 2 generation. The source holds these as a separate data set.
The test system of data set [4] is rat. Conditions: Prenatal developmental toxicity study, sprague dawley, Oral, Gavage/Intubation, dose end: 15 GD.
For data set [5], the system named is rat. Conditions: Prenatal developmental toxicity study; sprague dawley; Oral; Gavage/Intubation; dose end: 15 GD; group: maternal; systemic / in life observation / clinical signs / post-dosing rooting in bedding + systemic / in life observation / food consumption / food ….
The test system of data set [6] is primate. Conditions: Sub-acute repeat dose toxicity, Oral, Gavage/Intubation, dose end: 14 day, group: systemic.
The subject of data set [7] is rat. Conditions: Sub-acute repeat dose toxicity, Oral, Gavage/Intubation, dose end: 7 day, group: systemic.
The subject of data set [8] is primate. Conditions: Sub-acute repeat dose toxicity, Oral, Gavage/Intubation, dose end: 7 day, group: systemic.
Data set [9] has as its system rat. Conditions: Sub-acute repeat dose toxicity, sprague dawley, Oral, Gavage/Intubation, dose end: 14 day, group: systemic.
The mark [10] stands for this setting: group: offspring, developmental / developmental landmark / anogenital distance (agd) / anogenital distance (agd) + developmental / developmental landmark / ….
The mark [11] stands for this setting: group: parental, systemic / in life observation / body weight / body weight gain + systemic / in life observation / body weight / body weight + systemic / ….
The mark [12] stands for this setting: group: reproductive, reproductive / offspring survival early / birth index / live birth index + reproductive / reproductive performance / estrous cycle / ….
Setting [13] is: group: offspring, systemic / in life observation / body weight / offspring (pup) weight.
The mark [14] stands for this setting: group: parental, systemic / organ weight / epididymis / absolute + systemic / organ weight / testes / absolute.
The mark [15] stands for this setting: group: developmental, developmental / developmental malformation / bone / [other].
Where [16] appears, read: group: maternal, systemic / in life observation / body weight / body weight + systemic / in life observation / clinical signs / [other] + systemic / in life ….
Setting [17] is: systemic / in life observation / body weight / body weight.
[18] abbreviates: systemic / in life observation / body weight / body weight + systemic / clinical chemistry / chloride / chloride + systemic / clinical ….
The mark [19] stands for this setting: systemic / in life observation / mortality / mortality + systemic / pathology microscopic / stomach / degeneration + systemic / clinical ….
Setting [20] is: systemic / clinical chemistry / phosphorus / phosphorus + systemic / clinical chemistry / sodium / sodium + systemic / clinical chemistry / ….
[21] abbreviates: systemic / pathology microscopic / vagina / prolapse + systemic / in life observation / clinical signs / vomitting + systemic / in life ….
[22] abbreviates: systemic / clinical chemistry / albumin / albumin + systemic / clinical chemistry / globulins / globulins + systemic / pathology microscopic….

What is called LOAEL is the lowest dose or exposure tested at which an adverse effect was seen. As a reminder, the NOAEL is the highest tested level that showed no adverse finding. Regarding `CCC[CH2][Sn]([Cl])([CH2]CCC)[CH2]CCC` [Tributyltin chloride], the LEL in the data set with rat [1] is 5 mg/kg/day; in the data set with rat [2] (group: offspring, developmental / developmental landmark / anogenital distance (agd) / anogenital distance (agd)), 1.25 mg/kg/day; in the data set on rat [2] (setting [11]) it was 6.25 mg/kg/day; in the data set with rat [2] (setting [12]) it was 6.25 mg/kg/day; in the data set on rat [3] (setting [13]), 0.25 mg/kg/day; in the data set on rat [3] (setting [14]) it was 0.25 mg/kg/day. In addition, the LOAEL in the data set on rat [1] is above 5 mg/kg/day; in the data set on rat [2] (setting [10]), above 6.25 mg/kg/day; in the data set on rat [2] (setting [11]) it was above 6.25 mg/kg/day; in the data set on rat [2] (setting [12]), above 6.25 mg/kg/day; with rat [3] (setting [13]), 0.25 mg/kg/day; in the data set on rat [3] (setting [14]), 0.25 mg/kg/day. Besides, the NEL is 1 mg/kg/day with rat [1]; 0.25 mg/kg/day with rat [2] (setting [10]); 1.25 mg/kg/day in the data set on rat [2] (group: parental, systemic / in life observation / body weight / body weight gain); 1.25 mg/kg/day in the data set on rat [2] (setting [12]); below 0.25 mg/kg/day in the data set with rat [3] (setting [13]); below 0.25 mg/kg/day with rat [3] (setting [14]). In addition, the NOAEL in the data set with rat [1] is at least 5 mg/kg/day; in the data set with rat [2] (setting [10]), at least 6.25 mg/kg/day; in the data set on rat [2] (setting [11]), at least 6.25 mg/kg/day; in the data set on rat [2] (setting [12]), at least 6.25 mg/kg/day; with rat [3] (setting [13]) it was below 0.25 mg/kg/day; in the data set on rat [3] (setting [14]), below 0.25 mg/kg/day.
For the compound `CSc1nc(NC2CC2)nc(NC(C)(C)C)n1` [Cybutryne], the LEL came out at 300 mg/kg/day in the data set on rat [4] (setting [15]); 150 mg/kg/day in the data set on rat [4] (group: maternal, systemic / in life observation / body weight / body weight + systemic / in life observation / clinical signs / [other]); 150 mg/kg/day in the data set on rat [5]. In addition, the LOAEL is above 300 mg/kg/day in the data set with rat [4] (setting [15]); 300 mg/kg/day with rat [4] (group: maternal, systemic / in life observation / body weight / body weight + systemic / in life observation / body weight / body weight gain); 150 mg/kg/day with rat [5]. Also, the NEL was determined as 150 mg/kg/day in the data set on rat [4] (setting [15]), 50 mg/kg/day in the data set with rat [4] (setting [16]) and 50 mg/kg/day with rat [5]. For the same compound, the NOAEL in the data set with rat [4] (setting [15]) is at least 300 mg/kg/day; in the data set with rat [4] (setting [16]), 150 mg/kg/day; in the data set with rat [5], 50 mg/kg/day.
Turning to `CCn1nc(C)c2c1C(=O)NCC(c1ccc(O)cc1)=N2`, the LEL with primate [6] (setting [17]) came to 5 mg/kg/day; with rat [7] (systemic / pathology microscopic / heart / fibrosis + systemic / pathology microscopic / heart / hemorrhage + systemic / pathology …), 80 mg/kg/day; with primate [8] (setting [21]), 10 mg/kg/day; in the data set with rat [9] (systemic / organ weight / testes / absolute + systemic / pathology microscopic / heart / necrosis + systemic / pathology microscopic / …), 40 mg/kg/day. For the same compound, the values for the NEL in the data set on primate [6] (setting [17]), in the data set with primate [8] (setting [21]) and with rat [9] (systemic / organ weight / testes / absolute + systemic / pathology microscopic / blood vessel / inflammation + systemic / pathology …) were below 5 mg/kg/day, below 10 mg/kg/day and 20 mg/kg/day, respectively. Further, the LOAEL with primate [6] (setting [18]) was above 20 mg/kg/day; in the data set with rat [7] (setting [19]) it was above 300 mg/kg/day; in the data set on primate [8] (setting [20]), above 50 mg/kg/day; in the data set on rat [9] (setting [22]), above 80 mg/kg/day. In addition, the no observed adverse effect level (NOAEL) with primate [6] (setting [18]) is at least 20 mg/kg/day; in the data set on rat [7] (setting [19]) it was at least 300 mg/kg/day; in the data set with primate [8] (setting [20]), at least 50 mg/kg/day; in the data set with rat [9] (setting [22]), at least 80 mg/kg/day.
